The values that follow come from patent US6608086B2, “Dihydropyridines and new uses thereof” (Synaptic Pharmaceutical Corporation, priority 1993, dated 2003).

Read-outs that look alike come from different tables or passages of the source.

For data set [1], the target named is T1, α1A Human Adrenergic Receptor (Homo sapiens, UniProt P25100).
T1 construct: The entire coding region of α1A (1719 bp); expressed in transfected cells
T1 sequence (P25100 1-572): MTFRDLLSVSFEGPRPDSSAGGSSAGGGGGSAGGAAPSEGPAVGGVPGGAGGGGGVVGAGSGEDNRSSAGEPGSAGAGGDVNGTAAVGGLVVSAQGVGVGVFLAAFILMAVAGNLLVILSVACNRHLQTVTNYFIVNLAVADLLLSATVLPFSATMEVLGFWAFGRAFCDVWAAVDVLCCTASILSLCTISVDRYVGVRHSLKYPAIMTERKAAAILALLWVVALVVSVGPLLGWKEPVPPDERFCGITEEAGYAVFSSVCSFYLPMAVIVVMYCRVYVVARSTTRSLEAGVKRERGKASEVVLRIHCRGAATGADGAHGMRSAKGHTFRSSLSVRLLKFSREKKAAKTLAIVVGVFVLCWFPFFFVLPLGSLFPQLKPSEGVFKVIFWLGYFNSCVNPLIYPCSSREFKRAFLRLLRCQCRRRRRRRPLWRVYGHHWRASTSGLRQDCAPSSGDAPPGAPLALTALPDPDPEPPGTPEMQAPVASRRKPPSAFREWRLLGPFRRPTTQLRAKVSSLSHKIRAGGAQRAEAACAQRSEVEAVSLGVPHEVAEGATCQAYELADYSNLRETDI
The data set can be described thus: Radioligand binding, [3H]prazosin, cloned human α1A adrenergic receptor. In a few lines:
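In pH 7.5 Tris/MgCl2/ascorbic acid buffer, α1A-expressing LM(tk−) membranes are exposed to 0.5 nM [3H]prazosin (37° C, 20 min). Excess phentolamine (10 μM) marks nonspecific binding before rapid filtration.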

In data set [2] the target is T2, α2B receptor (Homo sapiens, UniProt P18089).
T2 construct: host or cells: LM(tk-) cells, line L-NGC-α2B
T2 sequence (P18089 1-450): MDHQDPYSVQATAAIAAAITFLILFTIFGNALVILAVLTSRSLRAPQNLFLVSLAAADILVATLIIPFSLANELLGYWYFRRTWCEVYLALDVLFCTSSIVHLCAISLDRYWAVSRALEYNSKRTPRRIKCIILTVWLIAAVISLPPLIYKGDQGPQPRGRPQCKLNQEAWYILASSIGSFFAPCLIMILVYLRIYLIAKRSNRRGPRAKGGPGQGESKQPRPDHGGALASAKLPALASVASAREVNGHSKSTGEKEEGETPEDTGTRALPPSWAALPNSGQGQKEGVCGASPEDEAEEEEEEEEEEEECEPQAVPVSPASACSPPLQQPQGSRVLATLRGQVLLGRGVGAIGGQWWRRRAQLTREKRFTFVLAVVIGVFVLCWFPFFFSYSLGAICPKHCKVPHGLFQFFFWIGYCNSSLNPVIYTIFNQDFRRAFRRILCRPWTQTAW
The data set can be described thus: Competition binding, [3H]rauwolscine, human α2B receptor. The conditions noted are these: [3H]rauwolscine, LM(tk-) cell line L-NGC-α2B; SEM and n in lines below. The text has this: The protocols for these experiments are given below.
α2 Human Adrenergic Receptors:
To determine the potency of […], antagonists at the α2 receptors, LM(tk−) cell lines stably transfected with the genes encoding the α2A, α2B, and α2C receptors were used. The cell line expressing the α2A receptor is designated L-α2A, and was deposited on Nov. […] The cell line expressing the α2B receptor is designated L-NGC-α2B, and was deposited on Oct. […] The cell line expressing the α2C receptor is designated L-α2C, and was deposited on Nov. […] Cell lysates were prepared as described above (see Radioligand Binding Assays), and suspended in 25 mM glycylglycine buffer (pH 7.6 at room temperature). Equilibrium competition binding assay were performed using [3H]rauwolscine (0.5 nM), and nonspecific binding was determined by incubation with 10 μM phentolamine. The bound radioligand was separated by filtration through GF/B filters using a cell harvester.

Data set [3] deals with T3, L-type calcium channel (Rattus norvegicus, UniProt P22002).
T3 construct: membrane fragments of rat cardiac muscle; from tissue; host or cells: rat cardiac muscle membranes
The data set is described as follows: Competition binding of [3H]nitrendipine to membrane fragments of rat cardiac muscle. The following applies: [3H]nitrendipine.

The target in data set [4] is T4, α1B Human Adrenergic Receptor (Homo sapiens, UniProt P35368).
T4 construct: The entire coding region of α1B (1563 bp); expressed in transfected cells
T4 sequence (P35368 1-520): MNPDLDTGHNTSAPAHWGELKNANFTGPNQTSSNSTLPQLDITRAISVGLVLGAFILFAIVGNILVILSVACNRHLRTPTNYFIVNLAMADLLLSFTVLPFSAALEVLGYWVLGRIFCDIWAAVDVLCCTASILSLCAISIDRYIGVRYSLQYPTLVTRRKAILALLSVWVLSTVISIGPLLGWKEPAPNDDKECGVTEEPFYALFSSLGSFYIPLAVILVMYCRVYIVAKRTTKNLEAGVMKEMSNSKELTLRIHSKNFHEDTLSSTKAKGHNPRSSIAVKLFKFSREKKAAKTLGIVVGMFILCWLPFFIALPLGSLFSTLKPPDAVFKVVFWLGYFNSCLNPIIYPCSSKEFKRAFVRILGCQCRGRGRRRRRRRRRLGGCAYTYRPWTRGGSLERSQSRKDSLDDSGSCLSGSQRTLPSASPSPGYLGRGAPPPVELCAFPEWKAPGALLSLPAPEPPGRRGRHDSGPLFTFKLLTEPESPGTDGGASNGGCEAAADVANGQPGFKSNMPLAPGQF
The data set can be described thus: Radioligand binding, [3H]prazosin, cloned human α1B adrenergic receptor. The method in brief:
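[3H]prazosin (0.5 nM) binding was run for 20 min at 37° C in pH 7.5 Tris/MgCl2/ascorbate buffer on membranes of LM(tk−) cells stably expressing the cloned receptor. Filtration through GF/B ended the reaction; 10 μM phentolamine gave nonspecific binding.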

The target of data set [5] is T5, α1C Human Adrenergic Receptor (Homo sapiens, UniProt P35348).
T5 construct: The entire coding region of α1C (1401 bp); expressed in transfected cells
T5 sequence (P35348 1-466): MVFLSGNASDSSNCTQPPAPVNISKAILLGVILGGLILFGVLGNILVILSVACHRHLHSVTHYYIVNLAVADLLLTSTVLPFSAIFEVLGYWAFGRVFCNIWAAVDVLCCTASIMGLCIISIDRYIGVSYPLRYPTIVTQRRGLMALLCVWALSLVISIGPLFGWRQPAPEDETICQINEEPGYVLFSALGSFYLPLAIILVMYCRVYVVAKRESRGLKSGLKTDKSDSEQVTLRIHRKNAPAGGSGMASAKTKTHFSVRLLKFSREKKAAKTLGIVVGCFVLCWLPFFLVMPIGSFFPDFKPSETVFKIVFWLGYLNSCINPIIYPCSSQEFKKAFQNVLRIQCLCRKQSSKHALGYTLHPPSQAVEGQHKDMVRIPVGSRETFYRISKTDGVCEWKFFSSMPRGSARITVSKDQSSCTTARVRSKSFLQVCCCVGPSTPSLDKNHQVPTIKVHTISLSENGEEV
The data set can be described thus: Radioligand binding, [3H]prazosin, cloned human α1C adrenergic receptor. In a few lines: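 Antagonist radioligand [3H]prazosin at 0.5 nM labels human α1C receptors in stably transfected LM(tk−) cell membranes over 20 min at 37° C. Phentolamine (10 μM) gives nonspecific binding.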

[6] abbreviates: rat cardiac muscle membranes, SEM and n in lines below, read-out: pKi Ca (converted).
The mark [7] stands for this setting: rat cardiac muscle membranes, mean, read-out: PKi Ca (converted).

T3 sequence (P22002 whole entry, other chains not shown, the tested form may be a part): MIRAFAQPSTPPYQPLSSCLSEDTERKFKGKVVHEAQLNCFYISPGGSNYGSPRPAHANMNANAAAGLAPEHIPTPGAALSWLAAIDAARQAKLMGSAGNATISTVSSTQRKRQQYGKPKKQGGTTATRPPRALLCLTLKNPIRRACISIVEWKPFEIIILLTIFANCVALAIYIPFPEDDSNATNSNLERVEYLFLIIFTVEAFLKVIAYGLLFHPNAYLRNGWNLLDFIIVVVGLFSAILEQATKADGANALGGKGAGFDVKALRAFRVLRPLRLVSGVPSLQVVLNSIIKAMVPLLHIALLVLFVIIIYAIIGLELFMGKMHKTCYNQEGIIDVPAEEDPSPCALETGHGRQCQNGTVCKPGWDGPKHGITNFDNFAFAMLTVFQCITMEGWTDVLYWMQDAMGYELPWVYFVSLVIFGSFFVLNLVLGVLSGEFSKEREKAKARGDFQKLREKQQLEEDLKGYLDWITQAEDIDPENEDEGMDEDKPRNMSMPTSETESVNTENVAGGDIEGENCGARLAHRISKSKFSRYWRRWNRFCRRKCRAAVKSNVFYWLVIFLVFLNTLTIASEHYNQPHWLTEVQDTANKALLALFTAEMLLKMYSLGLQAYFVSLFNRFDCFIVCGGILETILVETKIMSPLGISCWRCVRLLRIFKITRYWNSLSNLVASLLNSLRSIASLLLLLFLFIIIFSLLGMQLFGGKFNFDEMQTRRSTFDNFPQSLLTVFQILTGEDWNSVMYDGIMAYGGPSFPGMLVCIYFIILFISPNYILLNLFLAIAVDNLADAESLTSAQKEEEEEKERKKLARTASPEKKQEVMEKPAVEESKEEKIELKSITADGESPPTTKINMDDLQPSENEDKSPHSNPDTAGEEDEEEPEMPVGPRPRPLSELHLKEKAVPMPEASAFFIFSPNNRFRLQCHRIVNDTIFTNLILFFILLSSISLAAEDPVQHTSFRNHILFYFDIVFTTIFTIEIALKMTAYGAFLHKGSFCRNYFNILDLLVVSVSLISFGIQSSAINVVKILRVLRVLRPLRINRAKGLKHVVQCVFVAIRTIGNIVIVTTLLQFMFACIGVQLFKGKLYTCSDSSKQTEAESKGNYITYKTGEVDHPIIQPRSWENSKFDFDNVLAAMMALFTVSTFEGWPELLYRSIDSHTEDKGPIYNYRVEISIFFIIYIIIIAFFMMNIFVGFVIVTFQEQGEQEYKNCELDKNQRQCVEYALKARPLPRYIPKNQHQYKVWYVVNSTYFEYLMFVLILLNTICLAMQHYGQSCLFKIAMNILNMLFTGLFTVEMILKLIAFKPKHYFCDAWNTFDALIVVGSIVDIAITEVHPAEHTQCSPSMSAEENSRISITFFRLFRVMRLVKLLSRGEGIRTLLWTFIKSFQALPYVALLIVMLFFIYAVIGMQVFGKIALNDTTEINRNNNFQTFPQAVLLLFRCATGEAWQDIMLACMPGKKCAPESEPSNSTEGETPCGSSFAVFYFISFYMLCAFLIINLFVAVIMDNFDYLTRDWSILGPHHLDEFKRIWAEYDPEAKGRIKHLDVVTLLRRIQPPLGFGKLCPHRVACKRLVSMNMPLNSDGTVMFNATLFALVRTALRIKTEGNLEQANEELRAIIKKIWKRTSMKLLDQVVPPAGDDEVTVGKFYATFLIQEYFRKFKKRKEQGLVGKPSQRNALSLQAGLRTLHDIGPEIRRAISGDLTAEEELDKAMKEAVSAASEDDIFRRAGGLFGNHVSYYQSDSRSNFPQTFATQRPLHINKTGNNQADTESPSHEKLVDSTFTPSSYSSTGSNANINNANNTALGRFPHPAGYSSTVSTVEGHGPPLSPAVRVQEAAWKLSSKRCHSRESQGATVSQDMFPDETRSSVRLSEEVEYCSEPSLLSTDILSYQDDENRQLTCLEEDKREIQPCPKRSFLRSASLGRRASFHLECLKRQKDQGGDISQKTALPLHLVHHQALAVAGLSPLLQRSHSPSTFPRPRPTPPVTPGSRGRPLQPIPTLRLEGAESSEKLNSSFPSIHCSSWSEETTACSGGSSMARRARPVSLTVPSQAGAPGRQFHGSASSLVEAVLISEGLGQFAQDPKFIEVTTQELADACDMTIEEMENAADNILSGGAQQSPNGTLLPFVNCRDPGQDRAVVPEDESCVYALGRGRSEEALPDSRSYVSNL
T3 sequence (P54290 25-944 partner limits assumed, other chains not shown): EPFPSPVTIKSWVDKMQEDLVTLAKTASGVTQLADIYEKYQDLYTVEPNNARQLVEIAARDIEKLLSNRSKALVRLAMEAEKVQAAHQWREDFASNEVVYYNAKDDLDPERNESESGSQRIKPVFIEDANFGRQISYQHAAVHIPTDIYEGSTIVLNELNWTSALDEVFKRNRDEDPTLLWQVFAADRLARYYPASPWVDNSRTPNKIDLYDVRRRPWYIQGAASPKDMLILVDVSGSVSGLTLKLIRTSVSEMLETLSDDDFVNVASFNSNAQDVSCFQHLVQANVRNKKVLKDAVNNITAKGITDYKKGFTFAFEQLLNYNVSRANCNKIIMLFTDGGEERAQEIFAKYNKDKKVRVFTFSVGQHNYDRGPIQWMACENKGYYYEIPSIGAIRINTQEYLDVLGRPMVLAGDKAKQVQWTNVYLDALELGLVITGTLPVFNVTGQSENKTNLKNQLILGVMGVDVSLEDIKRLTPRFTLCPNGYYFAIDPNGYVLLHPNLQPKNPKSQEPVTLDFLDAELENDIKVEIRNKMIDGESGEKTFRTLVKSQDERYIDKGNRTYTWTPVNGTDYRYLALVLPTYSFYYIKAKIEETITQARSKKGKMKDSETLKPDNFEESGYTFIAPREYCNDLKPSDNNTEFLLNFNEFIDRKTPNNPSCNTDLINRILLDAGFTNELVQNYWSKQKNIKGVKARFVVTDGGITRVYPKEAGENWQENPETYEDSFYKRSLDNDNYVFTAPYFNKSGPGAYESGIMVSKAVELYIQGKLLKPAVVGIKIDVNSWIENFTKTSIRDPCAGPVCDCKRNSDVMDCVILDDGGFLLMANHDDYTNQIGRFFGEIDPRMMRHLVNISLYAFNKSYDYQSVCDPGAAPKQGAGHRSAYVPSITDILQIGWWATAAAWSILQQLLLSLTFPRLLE
T3 sequence (P54290 945-1091 partner limits assumed, other chains not shown): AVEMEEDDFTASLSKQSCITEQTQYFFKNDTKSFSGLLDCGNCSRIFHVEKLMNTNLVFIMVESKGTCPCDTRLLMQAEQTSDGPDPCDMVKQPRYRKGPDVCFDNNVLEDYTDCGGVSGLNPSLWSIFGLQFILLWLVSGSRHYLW

For the compound `CC1=C(C(N)=O)C(c2ccc([N+](=O)[O-])cc2)C(C(=O)NCCCN2CCC(c3ccccc3)(c3ccccc3)CC2)=C(C)N1` (racemic) [(±)-2], the “pKi alpha-1 1a” value in data set [1] is 6.22. Moreover, the “pKi alpha-2 2b” value in data set [2] was found to be 6.38. Besides, in data set [3] (setting [6]), the Ki is 200 µM.

As to `CC1=C(C(N)=O)C(c2ccc([N+](=O)[O-])cc2)C(C(=O)NCCCN2CCC(c3ccccc3)(c3ccccc3)CC2)=C(C)N1` (single isomer, unassigned; (-)) [(−)-2], in data set [1], the “pKi alpha-1 1a” value is 6.46. In data set [2], the “pKi alpha-2 2b” value is 6.56. In addition, in data set [3] (setting [6]), the Ki was 1820 µM.

With `CC1=C(C(N)=O)C(c2ccc([N+](=O)[O-])cc2)C(C(=O)NCCCN2CCC(c3ccccc3)(c3ccccc3)CC2)=C(C)N1` (single isomer, unassigned; (+)) [(+)-2], the “pKi alpha-1 1a” value in data set [1] ([3H]prazosin, cloned human receptor in LM(tk-) cell membranes, SEM and n in lines below) was 6.40. In data set [2], the “pKi alpha-2 2b” value was found to be 6.40. The “pKi Ca” value in data set [3] (rat cardiac muscle membranes, SEM and n in lines below) worked out at 4.11.

The term melting point denotes the temperature of the solid-liquid transition. For the compound `CCC1=C(C(N)=O)C(c2ccc([N+](=O)[O-])cc2)C(C(=O)NCCCN2CCC(C(=O)OC)(c3ccccc3)CC2)=C(COCCN=[N+]=[N-])N1` (centres unmarked) [Example 231, 2-((2-Azidoethyl)oxy)methyl-5-carboxamido-6-ethyl-1,4-dihydro-3-(N-(3-(4-methoxycarbonyl-4-phenylpiperidin-1-yl)propyl))carboxamido-4-(4-nitro)phenylpyridine], the melting point is 70 to 75 °C. Moreover, the Ki in data set [1] ([3H]prazosin, cloned human receptor, LM(tk-) cell membranes, mean, read-out: PKi alpha-1 1a (converted)) was 1.23 µM. Besides, in data set [4] (cloned human receptor, LM(tk-) cell membranes, mean, read-out: PKi alpha-1 1b (converted)), the Ki is 0.501 µM. Besides, the Ki in data set [5] (cloned human receptor, LM(tk-) cell membranes, mean, read-out: PKi alpha-1 1c (converted)) was 0.00437 µM. For the same compound, in data set [3] (setting [7]), the Ki was 389 µM.

As to `COC(=O)C1=C(C)NC(C)=C(C(=O)NCCCN2CCC(c3ccccc3)CC2)C1c1ccncc1` (centres unmarked) [Example 32, 1,4-Dihydro-3-methoxycarbonyl-2,6-dimethyl-5-(N-(3-(4-phenylpiperidin-1-yl)propyl)carboxamido)-4-(4-pyridyl)pyridine], the melting point fell in the range of 79 to 80 °C. Besides, the Ki in data set [1] ([3H]prazosin, cloned human receptor in LM(tk-) cell membranes, SEM and n in lines below, read-out: pKi alpha-1 1a (converted)) is 0.741 µM. For the same compound, the Ki in data set [4] (cloned human receptor in LM(tk-) cell membranes, SEM and n in lines below, read-out: pKi alpha-1 1b (converted)) is 0.302 µM. Moreover, the Ki in data set [5] (cloned human receptor in LM(tk-) cell membranes, SEM and n in lines below, read-out: pKi alpha-1 1c (converted)) is 0.0132 µM. Further, in data set [3] (setting [6]), the Ki was 1.58 µM.

For `CCNC(=O)C1=C(C)NC(C)=C(C(=O)NCCCN2CCC(c3ccccc3)(c3ccccc3)CC2)C1c1ccc([N+](=O)[O-])cc1` (centres unmarked) [Example 131, 5-(N-Ethyl)carboxamido-1,4-dihydro-2,6-dimethyl-4-(4-nitrophenyl)-3-{N-[3-(4,4-diphenylpiperidin-1-yl)propyl]}carboxamidopyridine], the melting point was 104 to 108 °C. For the same compound, in data set [1] (pKi alpha-1 1a, [3H]prazosin, cloned human α1A receptor, LM(tk−) cell membranes), the Ki was 1.48 µM. In data set [4] (pKi alpha-1 1b, cloned human α1B receptor, LM(tk−) cell membranes), this compound gave a Ki of 0.851 µM. In addition, the Ki in data set [5] (pKi alpha-1 1c, cloned human α1C receptor, LM(tk−) cell membranes) is 0.00457 µM. The Ki in data set [3] (rat cardiac muscle membrane fragments, L-type calcium channel, read-out: pKi Ca (converted)) is 100 µM.

Consider `CCC1=C(C(=O)O)C(c2ccc([N+](=O)[O-])cc2)C(C(=O)NCCCN2CCC(C#N)(c3ccccc3)CC2)=C(COC)N1` (centres unmarked) [Example 222, 3-(N-(3-(4-Cyano-4-phenylpiperidin-1-yl)propyl))carboxamido-6-ethyl-1,4-dihydro-2-methyloxymethyl-4-(4-nitro) phenylpyridine-5-carboxylic Acid], for which the melting point is 115 °C (dec.). Moreover, the Ki in data set [1] (PKi alpha-1 1a, [3H]prazosin, cloned human receptor, LM(tk-) cell membranes, mean) is 14.1 µM. The compound further had a Ki in data set [4] (PKi alpha-1 1b, cloned human receptor, LM(tk-) cell membranes, mean) of 6.76 µM. The compound also gave a Ki in data set [5] (PKi alpha-1 1c, cloned human receptor, LM(tk-) cell membranes, mean) of 0.0417 µM. The Ki in data set [3] (setting [7]) is 282 µM.
